From patent US12681018B2, “Photoactive fluorescent compounds and use thereof for labeling of proteins” (EIKON THERAPEUTICS, INC., priority 2021, dated 2026)
≈ marks a conversion by molar mass, not a printed value. Where two headings read alike, the source gives them in different places.

Columns and labels:
[1] = biological target: T1, Estrogen Receptor-HaloTag (ER-Halo) fusion (Rhodococcus rhodochrous, UniProt P0A3G2, A155T/A167V/A172T/A224E/C128F/C176G/D78G/E160K/E257K/H272N/K175M/K195N/L47V/L88M/N227D/P291S/S58T/T264A/Y273L/Y87F); type: cell-based; details: tracks in WT U2OS cells, ratio with PA-JF549 in the numerator, 100 nM, 1 hr
T1 construct: expressed in transfected cells; host or cells: U2OS
Protocol: Using the methods described in Tables 4a and 4b above, labelling specificity of the compound of Examples 1-24 was measured and compared to PA-JF549. U2OS cells wild type or expressing ER-HaloTag fusion were incubated with PA-JF549 or Examples 1-24 for 1 hr. […] Labeling specificity, as measured by the fold reduction in nonspecific labeling of WT cells, was calculated by number of tracks measured in WT cells for Examples 1-24 compared to the number of tracks in WT cells for PA-JF549, expressed as the ratio with PA-JF549 in the numerator.

[2] = Kinetic solubility in PBS at 7.4; type: physicochemical; details: PBS buffer, aqueous buffer, kinetic from dmso stock, pH 7.4, 500 μM final concentration, 1.5 hours at room temperature, average of three runs, read-out: Ksol
Protocol: 190 μL of buffer solution (PBS, pH 7.4) was added to wells on a 96-well Millipore Solubility filter plate. Then 10 μL of test compound in DMSO (10 mM) were added to give final concentration of 500 μM.
The filter plate was shaken for 1.5 hours at room temperature in the dark and samples were filtered via a vacuum system into a fresh 96-well plate. Samples were diluted to 500 μM (highest concentration) in DMSO and further diluted (1:10) to provide three-point calibration curve. Absorbance was measured using HPLC/UV analysis at 220 nm, 254 nm, and 280 nm.

[3] = system: histone H2B-HaloTag fusion; assay: Halo-protein specificity (Specificity Factor), single-molecule imaging in U2OS cells; type: cell-based; details: ratio of slope (spots vs dye concentration, 1-200 nM, 45 minutes) relative to PA-JF549
Protocol: The following day the cells were incubated with PA-JF549 or Examples 1-4 at a range of concentrations between 200 nM and 1 nM for 45 minutes. […] Samples were imaged on a Nikon Ti2 microscope with fiber-optic coupled illumination source. […] Images were collected every 10 msec for 5 seconds per field of view and pulses of ascending intensity 405 nm light (between 0 and 12 mW at the coverslip) were used to photoactivate dye molecules.
For each dye compound, a linear regression was used to determine the relationship between the concentration of dye compound and the number of fluorescence spots detected on the microscope, where in WT cells the ideal dye would have no correlation between compound concentration and number of slots measured. The Specificity Factor was calculated as the ratio of the slope of the compound in question relative to the slope calculated for PA-JF549 and is shown in Table 3 below.

T1 sequence (P03372 whole entry, the tested form may be a part): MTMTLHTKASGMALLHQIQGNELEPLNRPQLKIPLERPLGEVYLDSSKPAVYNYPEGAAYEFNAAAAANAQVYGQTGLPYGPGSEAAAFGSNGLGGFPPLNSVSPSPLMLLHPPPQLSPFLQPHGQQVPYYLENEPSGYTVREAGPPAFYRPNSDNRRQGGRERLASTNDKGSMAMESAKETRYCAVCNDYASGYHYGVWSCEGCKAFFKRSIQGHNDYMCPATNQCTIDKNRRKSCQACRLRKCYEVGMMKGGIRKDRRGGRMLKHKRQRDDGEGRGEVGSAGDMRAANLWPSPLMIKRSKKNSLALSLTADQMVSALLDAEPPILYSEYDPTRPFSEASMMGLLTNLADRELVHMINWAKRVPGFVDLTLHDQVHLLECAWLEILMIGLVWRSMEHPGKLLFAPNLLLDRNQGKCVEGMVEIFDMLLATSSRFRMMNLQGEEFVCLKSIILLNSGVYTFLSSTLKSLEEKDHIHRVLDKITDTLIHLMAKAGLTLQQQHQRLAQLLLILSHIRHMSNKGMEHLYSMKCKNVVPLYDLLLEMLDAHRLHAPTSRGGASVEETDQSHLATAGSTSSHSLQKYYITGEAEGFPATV
T1 sequence (P0A3G2 other isoform, or with tags, fused parts or gaps with the stated changes): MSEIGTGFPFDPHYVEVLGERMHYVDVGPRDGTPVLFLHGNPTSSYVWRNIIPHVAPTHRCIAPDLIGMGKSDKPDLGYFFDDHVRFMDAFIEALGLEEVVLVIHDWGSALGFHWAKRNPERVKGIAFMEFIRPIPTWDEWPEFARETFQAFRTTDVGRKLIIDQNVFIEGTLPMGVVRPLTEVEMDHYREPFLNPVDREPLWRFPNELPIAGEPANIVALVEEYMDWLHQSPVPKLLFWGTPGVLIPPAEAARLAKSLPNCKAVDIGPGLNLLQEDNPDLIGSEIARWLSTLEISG

COC(=O)C1CN(c2ccc3c(c2)Oc2cc(N4CC(C(=O)OC)C4)ccc2C32C(=[N+]=[N-])C(=O)c3ccc(C(=O)NCCOCCOCCCCCCCl)cc32)C1 [Example 1, dimethyl 1,1′-(6-((2-(2-((6-chlorohexyl)oxy)ethoxy)ethyl)carbamoyl)-2-diazo-3-oxo-2,3-dihydrospiro[indene-1,9′-xanthene]-3′,6′-diyl)bis(azetidine-3-carboxylate)]
Fold reduction in nonspecific labeling ([1]; Table 4a): >10 | Fold reduction in nonspecific labeling ([1]; Table 4b): >10 | solubility kinetic at 1.5 h [2]: 58.4 µM (≈ 46.7 µg/mL) | Specificity Factor [3]: 2.66

[N-]=[N+]=C1C(=O)c2ccc(C(=O)NCCOCCOCCCCCCCl)cc2C12c1ccc(N3CC(C(=O)O)C3)cc1Oc1cc(N3CC(C(=O)O)C3)ccc12 [Example 2, 1,1′-(6-((2-(2-((6-chlorohexyl)oxy)ethoxy)ethyl)carbamoyl)-2-diazo-3-oxo-2,3-dihydrospiro[indene-1,9′-xanthene]-3′,6′-diyl)bis(azetidine-3-carboxylic acid)]
Fold reduction in nonspecific labeling ([1]; Table 4a): >10 | Fold reduction in nonspecific labeling ([1]; Table 4b): >10 | solubility kinetic at 1.5 h [2]: 481 µM (≈ 371 µg/mL) | Specificity Factor [3]: <1

COC[C@H]1CCN1c1ccc2c(c1)Oc1cc(N3CC[C@@H]3COC)ccc1C21C(=[N+]=[N-])C(=O)c2ccc(C(=O)NCCOCCOCCCCCCCl)cc21 [Example 3, N-(2-(2-((6-chlorohexyl)oxy)ethoxy)ethyl)-2-diazo-3′,6′-bis((R)-2-(methoxymethyl)azetidin-1-yl)-3-oxo-2,3-dihydrospiro[indene-1,9′-xanthene]-6-carboxamide]
Fold reduction in nonspecific labeling ([1]; Table 4a): 1-5 | Fold reduction in nonspecific labeling ([1]; Table 4b): 1-5 | solubility kinetic at 1.5 h [2]: 39.5 µM (≈ 30.5 µg/mL) | Specificity Factor [3]: 2.07

CN(C)C(=O)C1CN(c2ccc3c(c2)Oc2cc(N4CC(C(=O)N(C)C)C4)ccc2C32C(=[N+]=[N-])C(=O)c3ccc(C(=O)NCCOCCOCCCCCCCl)cc32)C1 [Example 4, 1,1′-(6-((2-(2-((6-chlorohexyl)oxy)ethoxy)ethyl)carbamoyl)-2-diazo-3-oxo-2,3-dihydrospiro[indene-1,9′-xanthene]-3′,6′-diyl)bis(N,N-dimethylazetidine-3-carboxamide)]
Fold reduction in nonspecific labeling ([1]; Table 4a): >10 | Fold reduction in nonspecific labeling ([1]; Table 4b): >10 | solubility kinetic at 1.5 h [2]: 3.69 µM (≈ 3.05 µg/mL) | Specificity Factor [3]: 23.8
